Assay results published in US20230158071A1, “TUMOR COMBINED IMMUNOTHERAPY” (CRAGE medical Co., Limited, priority 2018, published 2023).

What was measured:
Assay type in all cases: cell-based, mouse
[1] = test system: 4T1-EGFRvIII cells; test: LDH cytotoxicity assay, CAR-T killing of olaparib-treated 4T1-EGFRvIII cells
Procedure: The experimental groups for incubating with cells that are positive for the antigen target comprises the following 4 groups: UTD group, 806-mCD28z-CAR-T group (or denoted as 806-28Z), olaparib pretreatment group, and olaparib combined treatment group;
the olaparib pretreatment group comprises: UTD+1 μM olaparib pretreatment group (or denoted as UTD+Olaparib 1 μM pretreatment), UTD+5 μM olaparib pretreatment group (or denoted as UTD+Olaparib 5 μM pretreatment), 806-mCD28z-CAR-T+1 μM olaparib pretreatment group (or denoted as 806-28Z+Olaparib 1 μM pretreatment). 806-mCD28z-CAR-T+5 μM olaparib pretreatment group (or denoted as 806-28Z+Olaparib 5 μM pretreatment); […]
Olaparib pretreatment group: different concentrations of olaparib (1 μM, 5 μM) are added to the medium for culturing E0771-EGFRVIII or 4T1-EGFRvIII tumor cells respectively, culturing at 37° C. for 24 h, and then the cells are treated with trypsin and resuspended in fresh medium. The untreated mouse T cells and 806-mCD28z-CAR T cells in Example 1 are respectively taken to incubate with E0771-EGFRvIII or 4T1-EGFRVIII cells pretreated with different concentrations of olaparib at a ratio of 1:3, 1:1, and 3:1; 16 hours later, the secretion of LDH in the supernatant is detected by Cytox 96 Non-Radioactive Cytotoxicity Assay, then calculating the killing toxicity of 806-mCD28z CAR T cells to tumor cells pretreated with different concentrations of olaparib. […] Cytox 96 Non-Radioactive Cytotoxicity Assay (Promaga, REF: G1782); at the same time, the secretions of cytokines Granzyme B, IFN-γ, and IL-2 in the supernatant are detected by ELISA kit (Lianke Biotech Co. Ltd. CAT: 18^.22), for specific experimental procedures, referring to instructions of MouseGranzyme B, IFN-γ, IL-2 ELISA kit from Lianke Biotech Co, Ltd. […]

[2] = test system: cytokines Granzyme B, IFN-γ, and IL-2; test: ELISA of cytokines in supernatant of co-cultured 4T1-EGFRvIII cells and CAR-T cells; settings: 4T1-EGFRvIII co-culture with CAR-T cells, olaparib groups
Procedure: Olaparib pretreatment group: different concentrations of olaparib (1 μM, 5 μM) are added to the medium for culturing E0771-EGFRVIII or 4T1-EGFRvIII tumor cells respectively, culturing at 37° C. for 24 h, and then the cells are treated with trypsin and resuspended in fresh medium. The untreated mouse T cells and 806-mCD28z-CAR T cells in Example 1 are respectively taken to incubate with E0771-EGFRvIII or 4T1-EGFRVIII cells pretreated with different concentrations of olaparib at a ratio of 1:3, 1:1, and 3:1; 16 hours later, the secretion of LDH in the supernatant is detected by Cytox 96 Non-Radioactive Cytotoxicity Assay, then calculating the killing toxicity of 806-mCD28z CAR T cells to tumor cells pretreated with different concentrations of olaparib. For specific detection steps and calculation methods, see the instructions of Promaga. Cytox 96 Non-Radioactive Cytotoxicity Assay (Promaga, REF: G1782); at the same time, the secretions of cytokines Granzyme B, IFN-γ, and IL-2 in the supernatant are detected by ELISA kit (Lianke Biotech Co. Ltd. CAT: 18^.22), for specific experimental procedures, referring to instructions of MouseGranzyme B, IFN-γ, IL-2 ELISA kit from Lianke Biotech Co, Ltd. […]

[3] = test system: exhaustion-related proteins PD1, LAG3 and TIM3 on the surface of CAR-T cells; test: Flow cytometry of exhaustion-related proteins on CAR-T cells in co-culture
Procedure: The experimental groups are as follows: 806-mCD28z-CAR-T group (or denoted as 806-28Z), olaparib pretreatment group, and olaparib combined treatment group;
The olaparib pretreatment group comprises: 806-mCD28z-CAR-T+1 μM olaparib pretreatment group (or denoted as 806-28Z+Olaparib 1 μM pretreatment), 806-mCD28z-CAR-T+5 μM olaparib pretreatment group (or denoted as 806-28Z+Olaparib 5 μM pretreatment);
Olaparib combined treatment group comprises: 806-mCD28z-CAR-T+1 μM olaparib combined treatment group (or denoted as 806-28Z+Olaparib 1 μM), 806-mCD28z-CAR-T+5 μM olaparib combined treatment group (or denoted as 806-28Z+Olaparib 5 μM).
(§1) Olaparib pretreatment group: different concentrations of olaparib (1 μM, 5 μM) are respectively added to a medium for culturing E0771-EGFRvIII or 4T1-EGFRvIII tumor cells, after culturing at 37° C. for 24 hours, the cells are treated with trypsin and resuspended in fresh medium. 806-mCD28z-CAR T cells in Example 1 are taken to co-incubate with E0771-EGFRVIII or 4T1-EGFRvIII cells pretreated with different concentrations of olaparib at a ratio of 1:1; 16 hours later, the proliferation of CAR-T cells and the expression levels of the T cell exhaustion-related proteins PD1, LAG3 and TIM3 on the surface of CAR-T cells are detected by flow cytometry.
as §1, with “combined treatment” for “pretreatment”, “E0771-EGFRvIII” for “E0771-EGFRVIII”, “1:1; after corresponding concentrations of olaparib (1 μM, 5 μM) are respectively added to the medium for” for “1:1;”, “hours,” for “hours later,”, “LAG-3” for “LAG3”

[4] = olaparib combined treatment group

O=C(c1cc(Cc2n[nH]c(=O)c3ccccc23)ccc1F)N1CCN(C(=O)C2CC2)CC1 [olaparib] was tested, and the “lethal effect on 4T1-EGFRvIII cells compared with the CAR-T single treatment group” value ([1]; 5 μM olaparib combined treatment group) was “higher synergistic lethal effect”, the “promotion of the killing effect of CAR-T cells on 4T1-EGFRvIII cells” value ([1]; 5 μM olaparib pretreatment group, better than 5 μM combined treatment group) was “most significant” and the “killing effect of CAR-T cells on 4T1-EGFRvIII cells” value ([1]; olaparib 1 μM or 5 μM, pretreatment or combined treatment, vs CAR-T alone, ratio 1:3, 1:1, 3:1, 16 hours, LDH) was “significantly improved”. For the same compound, the “level of cytokine in the supernatant” value [2] was “not increased”, the “expression level of LAG3 on the surface of CAR-T cells” value [3, 4] was “do not change significantly” and the “expression level of PD1 on the surface of CAR-T cells” value [3, 4] was “do not change significantly”. The “expression level of TIM3 on the surface of CAR-T cells” value [3, 4] was “do not change significantly”, the “expression level of LAG3 on the surface of CAR-T cells” value ([3]; olaparib pretreatment group) was “do not change significantly” and the “expression level of PD1 on the surface of CAR-T cells” value ([3]; olaparib pretreatment group) was “do not change significantly”. The “expression level of TIM3 on the surface of CAR-T cells” value ([3]; olaparib pretreatment group) was “do not change significantly”.
